PubChem BioAssay (NCI)
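All cell lines were grown in 96-well plates and treated with compound for 48 hours. Definition used: TGI = concentration required for complete inhibition of growth.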

Legend:
Assay in all cases: growth of human tumour cells (NCI), 48 h
[1] = system: SK-OV-3 ovarian
[2] = system: OVCAR-5 ovarian
[3] = system: OVCAR-8 ovarian
[4] = system: T-47D breast
[5] = system: SW-620 colon
[6] = system: HOP-62 NSCLC
[7] = system: A549 NSCLC
[8] = system: NCI-H460 lung
[9] = system: MDA-N
[10] = system: RXF 393 renal
[11] = system: SN12C renal

| Structure (SMILES) | TGI [1] [µM] | TGI [2] [µM] | TGI [3] [µM] | TGI [4] [µM] | TGI [5] [µM] | TGI [6] [µM] | TGI [7] [µM] | TGI [8] [µM] | TGI [9] [µM] | TGI [10] [µM] | TGI [11] [µM] |
| --- | --- | --- | --- | --- | --- | --- | --- | --- | --- | --- | --- |
| O=C1c2ccccc2C(=O)c2nn(N=P(CP(=Nn3nc4c(n3)C(=O)c3ccccc3C4=O)(c3ccccc3)c3ccccc3)(c3ccccc3)c3ccccc3)nc21 | > 100 | > 100 | > 100 | > 100 | > 100 | > 100 | > 100 | > 100 | > 100 | > 100 | > 100 |
| Nn1c(Sc2nc3ccccc3c(=O)n2N)nc2ccccc2c1=O | 54.6 | 40.6 | 11.1 | > 51.8 | 7.13 | 35.9 | 39 | 51.7 | 15.5 | 25.1 | 18.8 |
| COc1cc2c(cc1O)CCN(C)[C@H]2Cc1ccc(Oc2c(O)c(OC)cc3c2C[C@H]2c4c(c(OC)c(OC)c(OC)c4-3)CCN2C)cc1 | 10.5 | 13.2 | 13.1 | 12.2 | 10 | 11.8 | 10 | 7.65 | 9.95 | 6.46 | 10.7 |
| COC(=O)/C=c1/c2ccccc2n2c1c1ccccc1[n+]2C | 6.93 | 17.6 | 15.7 | > 100 | 12.3 | 15.3 | 24.1 | 12.5 | 11.1 | 17.4 | 16.4 |
| Cc1ccc(NC2=N/C(=C/c3ccco3)C(Cl)=N2)cc1 | > 100 | > 100 | > 100 | > 100 | > 100 | > 100 | > 100 | > 100 | > 100 | > 100 | > 100 |
| CCN(CC)C1Oc2cc3c(cc2C(c2cc(OC)c(OC)c(OC)c2)C1C)OCO3 (configuration not stated) | > 61.7 | > 47.8 | > 43.2 | > 88.7 | > 63.1 | 12.9 | > 46.8 | 22.5 | 0.456 | > 44.1 | > 53.8 |
| COc1cc2oc(-c3ccc4c(c3)OCO4)c(OC)c(=O)c2c(O)c1OC | > 50 | > 50 | > 50 | > 50 | > 50 | > 50 | > 50 | > 50 | > 50 | > 50 | > 50 |
| Cn1c2ccc(C3=NCCN3)cc2c2cc(C3=NCCN3)ccc21 | > 100 | > 100 | > 100 | > 100 | > 100 | > 100 | > 100 | 25.9 | > 100 | > 100 | > 100 |
| CC1CN=C(c2ccc(-c3nc(-c4ccc(C5=NCC(C)N5)cc4)nc(N(C)C)n3)cc2)N1 (configuration not stated) | 5.54 | 10.8 | 10 | 12.9 | 5.56 | 5.35 | 12.8 | 11.1 | 4.03 | 12.8 | 3.87 |
| N#Cc1c(N2CCN(c3ccc([N+](=O)[O-])cc3)CC2)[n+](=O)c2ccc(-c3ccc([N+](=O)[O-])cc3)cc2n1[O-] | > 100 | > 100 | > 100 | > 100 | > 100 | 23.8 | > 100 | > 38.3 | > 100 | > 100 | – |
| CC(=O)Nc1ccc(/C=C2/NC(=S)N(/C=C3\C(=O)Oc4ccccc4C3=O)C2=O)cc1 | > 100 | > 100 | > 100 | > 100 | > 100 | > 100 | > 100 | > 100 | > 100 | > 100 | > 100 |
| COC(=O)C1CC23C=CCN4CC(C2C)C2(c5ccccc5NC12)C43 (configuration not stated) | > 100 | > 100 | > 100 | > 100 | > 100 | > 100 | > 100 | > 100 | > 100 | > 100 | > 100 |
| C=CCc1ccccc1C1CC2(C(=O)OC)OC1C(C(=O)OC)=C2C(=O)OC (configuration not stated) | > 10 | > 10 | > 10 | > 10 | > 10 | > 10 | > 10 | > 10 | > 10 | > 10 | > 10 |
| CCN(CCCl)c1cccc(NC(=O)c2ccc(C(=O)Nc3cccc(CN(C)C)c3)cc2)c1 | 4.13 | 32 | 1.35 | 0.662 | 11.9 | 6.14 | 12.2 | 1.36 | 0.286 | 0.0298 | 2.44 |
| COC1(OC)C=CC(=O)C=C1 | 26.3 | > 41.6 | 7.61 | 10.7 | 3.12 | 24.5 | 21.3 | 19.7 | > 36.8 | 4.51 | 30.8 |
| COc1cc(C)cc2c(-c3c(O)cc(O)c4c3C[C@H](C)N[C@H]4C)cc(-c3cc(-c4c(O)cc(O)c5c4C[C@H](C)N[C@H]5C)c4cc(C)cc(OC)c4c3O)c(O)c12 | > 100 | > 100 | > 100 | > 100 | > 100 | > 100 | > 100 | > 100 | > 100 | > 100 | > 100 |
| O=[N+]([O-])c1ccc2nc(/C=C(\O)c3ccc(Cl)cc3)c(/C=C(\O)c3ccc(Cl)cc3)nc2c1 | – | > 100 | > 100 | > 100 | – | > 100 | > 100 | > 100 | > 100 | > 100 | > 100 |
| CC(=Nc1cc(Cl)cc(Cl)c1)c1ccncc1 | > 100 | > 100 | > 100 | > 100 | > 100 | > 100 | > 100 | > 100 | > 100 | > 100 | > 100 |
| O=C(O)CCSC1=NCCN1 | > 100 | > 100 | > 100 | > 100 | > 100 | > 100 | > 100 | > 100 | > 100 | > 100 | > 100 |
| CCOC(=O)c1c(N)sc2c1C(C(=O)OCC)CCC2 (configuration not stated) | – | > 100 | > 100 | > 100 | > 100 | > 100 | > 100 | > 100 | > 100 | > 100 | > 100 |

| Structure (SMILES) | TGI [1] [µM] | TGI [2] [µM] | TGI [3] [µM] | TGI [4] [µM] | TGI [5] [µM] | TGI [6] [µM] | TGI [7] [µM] | TGI [8] [µM] | TGI [9] [µM] | TGI [10] [µM] | TGI [11] [µM] |
| --- | --- | --- | --- | --- | --- | --- | --- | --- | --- | --- | --- |
| CC(=O)O[C@H]1CCC2[C@@H]3CCC4NC(=O)C(C#N)C[C@]4(C)C3CC[C@@]21C (some centres not stated) | > 10 | > 10 | > 10 | > 10 | > 10 | > 10 | > 10 | > 10 | > 10 | > 10 | > 10 |
| CC1=NN2C(=N)/C(=C/c3ccccc3)C(=O)N=C2S1 | > 100 | > 100 | > 100 | > 100 | > 100 | > 100 | > 100 | > 100 | > 100 | > 100 | > 100 |
| Cc1c(C#N)c(=N)oc2ccccc12 | > 100 | > 100 | > 100 | > 100 | > 100 | > 100 | > 100 | > 100 | > 100 | > 100 | > 100 |
| Cc1cn(CCOCCOC(=O)NC(CCCNC(N)=O)C(=O)O)c(=O)[nH]c1=O (configuration not stated) | > 100 | > 100 | > 100 | > 100 | > 100 | > 100 | > 100 | > 100 | > 100 | > 100 | > 100 |
| C/C(=N/NC(=S)N1CCN(C(=S)N/N=C(/C)c2ccccn2)CC1)c1ccccn1 | > 100 | > 100 | > 100 | 42.5 | > 100 | > 67.9 | > 100 | > 100 | > 100 | 41.4 | > 100 |
| Cn1ccc2c(c1=O)C(=O)OC2(C)C | > 100 | > 100 | > 100 | > 100 | > 100 | > 100 | > 100 | > 100 | > 100 | > 100 | > 100 |
| CCN1CCCn2c(=O)[nH]c3cc(Br)cc1c32 | > 100 | > 100 | > 100 | > 100 | > 100 | > 100 | > 100 | > 100 | > 100 | 54.6 | > 100 |
| C=CCOC1(CC=C)C(=O)OC2C(O)COC21O (configuration not stated) | > 100 | > 100 | > 100 | > 100 | > 100 | > 100 | > 100 | > 100 | > 100 | > 100 | > 100 |
| COC(=O)c1cc(C)ccc1/C=C1\Cc2c(C)cc(C)cc2C1=O | – | > 100 | > 100 | > 100 | > 100 | 32.4 | > 100 | > 100 | > 100 | 44.5 | > 100 |
| CNC(=O)N(CCC#N)CCCN(C(=O)N(C)C)c1ccccc1 | > 100 | > 100 | > 100 | > 100 | > 100 | > 100 | > 100 | > 100 | > 100 | > 100 | > 100 |
| COc1cccc(NC(=O)CC(=O)N2N=C(C)C(N=Nc3ccc(C(=O)O)cc3)C2=O)c1 (configuration not stated) | – | > 100 | > 100 | > 100 | > 100 | > 100 | > 100 | – | > 100 | > 100 | > 100 |
| CC1(C)C=[N+]([O-])C(C)(C)N1O | – | > 10 | > 10 | > 10 | > 10 | > 10 | > 10 | > 10 | > 10 | > 10 | > 10 |
| Cc1nc2cccc(F)c2c(=O)n1-c1nnc(C(F)(F)F)s1 | > 10 | > 10 | > 10 | > 10 | > 10 | > 10 | > 10 | > 10 | > 10 | > 10 | > 10 |
| CC1CN=C(c2ccc(CN3CCC(C4CCN(Cc5ccc(C6=NCC(C)N6)cc5)CC4)CC3)cc2)N1 (configuration not stated) | 53.9 | 65.1 | > 100 | 49.4 | 43.1 | 30.9 | 46 | 37.3 | 47.3 | 33.5 | 37 |
| O=C(NCCCCCCO)c1cccc2cc3ccccc3nc12 | 47.4 | 38.9 | > 100 | 26 | > 100 | 32.9 | 31.5 | 39 | 12.9 | 37.7 | 49.5 |
| COc1cc2c(cc1OC)C(=O)/C(=C/c1ccc(O)cc1)CC2 | > 10 | > 10 | > 10 | > 10 | > 10 | > 10 | > 10 | > 10 | > 10 | > 10 | > 10 |
| COc1ccccc1NC(=S)N/N=C/c1ccccn1 | 34.8 | > 46.4 | 12.9 | 1.95 | > 46.4 | 25.6 | 34.7 | 6.12 | > 46.4 | 94.1 | 5.15 |
| Nc1ccc2c(c1)NC(=O)[C@@H]1CCCN1C2=O | > 100 | > 100 | > 100 | > 100 | > 100 | > 100 | > 100 | > 100 | > 100 | > 100 | > 100 |
| O=P(O)(O)C=C=C1CCCCC1 | > 100 | > 100 | > 100 | > 100 | > 100 | > 100 | > 100 | > 100 | > 100 | > 100 | > 100 |
| CC(=O)NC(=O)NC1=NCCC(=O)N1CCc1c[nH]c2ccccc12 | > 100 | > 100 | > 100 | > 100 | > 100 | > 100 | > 100 | > 100 | > 100 | > 100 | > 100 |
